Source: patent US20150266857A1, “NOVEL 3-INDOL SUBSTITUTED DERIVATIVES, PHARMACEUTICAL COMPOSITIONS AND METHODS FOR USE” (iTeos Therapeutics, priority 2014, published 2015)

What was measured:
[1] = molecular target: T1, human recombinant TDO2 enzyme (Homo sapiens, UniProt P48775); assay: Assay for TDO2 enzymatic activity determination; assay type: biochemical; conditions: human recombinant TDO2, L-Trp 1 mM, kynurenine absorbance at 480 nm
T1 construct: made in house
Procedure, shortened: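 Recombinant human TDO2 assayed in 50 mM potassium phosphate pH 7.5 with ascorbate, methylene blue and catalase. Reaction started with 1 mM L-Trp, run 1 h at room temperature, stopped with TCA, then heated at 65 °C. Kynurenine measured with Ehrlich's reagent at 480 nm against a standard curve; ten-point concentration series fitted.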

[2] = molecular target: T2, human glioblastoma A172 cells, naturally expressing hTDO2 (Homo sapiens, UniProt P48775); assay: Cellular assay for TDO2 activity, A172 cells; assay type: cell-based; conditions: overnight incubation, kynurenine in supernatant
T2 construct: human glioblastoma A172 cells, naturally expressing hTDO2; endogenous in cells; host or cells: human glioblastoma A172 cells (ATCC CRL-1620)
T2 sequence (P48775 whole entry): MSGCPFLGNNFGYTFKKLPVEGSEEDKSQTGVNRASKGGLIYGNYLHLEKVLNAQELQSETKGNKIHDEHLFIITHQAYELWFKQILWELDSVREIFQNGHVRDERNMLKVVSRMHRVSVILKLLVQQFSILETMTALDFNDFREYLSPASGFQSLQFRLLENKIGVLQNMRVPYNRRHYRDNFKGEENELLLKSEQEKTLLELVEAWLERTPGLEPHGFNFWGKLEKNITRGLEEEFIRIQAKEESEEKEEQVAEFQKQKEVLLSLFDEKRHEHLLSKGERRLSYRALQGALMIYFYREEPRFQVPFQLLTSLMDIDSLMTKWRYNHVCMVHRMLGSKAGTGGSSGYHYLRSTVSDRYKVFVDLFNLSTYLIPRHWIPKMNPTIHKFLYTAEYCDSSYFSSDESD
Procedure, shortened: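 A172 human glioblastoma cells naturally expressing TDO2, seeded at 1.25×10^4 cells/well, were incubated overnight at 37 °C in IMDM with 2% FBS and ten serial compound concentrations. Supernatant kynurenine, after TCA precipitation and Ehrlich's reagent, was read at 480 nm against a kynurenine standard curve; data curve-fitted.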

TDO2 = assay: Pharmacodynamic assay for TDO2 in vivo activity: increase of blood Tryptophan levels in mice; set-up: species or system mouse; conditions: female BALB/c mice, 2 hours; for increase of circulating Tryptophan compared to vehicle-treated controls: p<0.0001
Protocol: The compounds of the present invention increase the amount of Tryptophan in mouse blood. Briefly, female BALB/c mice (7-8 weeks old) were treated with either a suspension of one of the compounds of the present invention in 0.5% hydroxypropyl methyl cellulose (HPMC) K4M (4000 mPa·s (cPs), Methocell™, Dow chemical)/0.25% Tween® 20 (Signma Aldrich) at different doses (30, 60 and 100 mg/kg), or with a vehicle control (0.5% HPMC K4M/0.25% Tween 20), by the oral route by gavage (dosing volume 5 mL/kg, 10 mice per group). After two hours, blood was harvested, plasma was prepared and the amount of Tryptophan present was determined by LC-MS-MS (HPLC column Unison UK-Phenyl, 75×4.6, 3 μm, flow rate 0.8 mL/min, 8 minutes gradient from 95% water+0.1% formic acid/5% Acetonitrile+0.1% formic acid to 5% water+0.1% formic acid/95% Acetonitrile+0.1% formic acid, retention time 2.4 min; API4000 MS-MS system from AB Sciex, ESI+ mode, parent ion 205.1, daughter ion 146.1).

T1 sequence (P48775 whole entry): as above

- IC50 [1]: 1630 nM
- IC50 [2]: 239 nM
Compound: Fc1ccc2c(-c3ccc4nc(CCN5CCNCC5)oc4c3)c[nH]c2c1 [Compound 110, 6-(6-fluoro-1H-indol-3-yl)-2-(2-(piperazin-1-yl)ethyl)benzo[d]oxazole]
- Tryptophan concentration in plasma (average ± standard error of the mean) (TDO2; 30 mg/kg oral gavage): 125 ± 7 µM
- increase of circulating Tryptophan compared to vehicle-treated controls (TDO2; 30 mg/kg oral gavage): 46%
- Tryptophan concentration in plasma (average ± standard error of the mean) (TDO2; 60 mg/kg oral gavage): 130.3 µM
- increase of circulating Tryptophan compared to vehicle-treated controls (TDO2; 60 mg/kg oral gavage): 52%
- Tryptophan concentration in plasma (average ± standard error of the mean) (TDO2; 100 mg/kg oral gavage): 153.2 µM
- increase of circulating Tryptophan compared to vehicle-treated controls (TDO2; 100 mg/kg oral gavage): 78%
